In US20130096067A1, “DROSOPHILA TUMOR STEM CELL MODEL AND USES THEREOF” (priority 2011, published 2013):
Entries after “also recorded” stand apart in the source; their conditions may differ.

Legend:
JNK signaling = experiment: puc-LacZ reporter for JNK signaling in wild-type guts; format: in vivo, Drosophila; settings: EC cells
Method: (§1) Flies were treated with DMSO alone as a control. […].
(§2) For example, subjecting the fly intestine to the detergent dextran sulfate sodium (DSS) or to pathogen infection, induces ECs to activate the JNK stress-related pathway and to express IL-6 related cytokines (Unpaireds/Upds) (Jiang et al., 2009; Buchon et al., 2009; Apidianakis et al., 2009). The Upds activate JAK-STAT signaling in the ISCs, driving them to overproliferate. To determine if these same pathways are activated in response to FDA anti-cancer drugs, the puc-lacZ reporter was used to monitor JNK signaling, and a Gal-4 enhancer trap to monitor expression of Upd-3, the Upd cytokine preferentially expressed in the gut in response to injury (Jiang et al., 2009).

[1] = tested on: Raf-1^gof intestinal tumors; experiment: Luciferase screen of FDA-approved (NCI) drugs in 96-well plates, flies with Raf-1^gof intestinal tumors; format: in vivo, Drosophila; settings: for Avg (3 + 6): average of Day 3 and Day 6 fold; for Log2 (fold): log2 of the Day 3 fold difference in luciferase relative to DMSO controls; for Day 3 Fold: luciferase activity relative to DMSO controls, single dose of drug for three days, 96-well plates; for Day 6 Fold: six-day protocol: single dose for three days, then another dose for three more days; on Avg (3 + 6): test concentration or dose not given here; on Log2 (fold): test concentration or dose not given here
ISCs/EBs = experiment: Drug-induced ISC/EB expansion in animals with loss-of-function JAK allele hop^msv1; format: in vivo, Drosophila; settings: loss-of-function JAK allele hop^msv1 vs wild type
Method: FIG. 7. FDA anti-cancer drugs that block TSCs can have differential effects on the microenvironment and growth of wild-type ISCs. […] Flies were treated with DMSO alone as a control. […]. […] C) The expansion of ISCs/EBs in response to bortezomib and paclitaxel is less severe in animals with a loss-of-function JAK allele, hop^msv1.
Controls: yw,yv;attP2 (Ni et al., 2008). Gal4 drivers and reporters: esg-Gal4,UAS-GFP,tub-Gal80^ts (Micchelli et al., 2006), UAS-luc2(luciferase at attP2) (Markstein et al., 2008), puc-lacZE69 (Ring et al., 1993), #42685}, upd3-Gal4 (Agaisse et al., 2003). UAS constructs: UAS-Raf-1^gof (Brand et al., 1994), UAS-raptor-RNAi (TRIP stock JF01088), UAS-Dsor-RNAi (TRIP stock JF01697), UAS-Akt-RNAi (TRIP stock HMS00007). UAS-NotchDN (Jacobsen 1998). Mutants: hop^msv1 (Perrimon et al., 1986). Using the above stocks, an esg-Gal4 stock was created with both an inducible GFP reporter and an inducible Luciferase reporter: esg-Gal4,UAS-GFP,tub-Gal80^ts; UAS-luc2. For the chemical screens the following cross was performed to create Raf-1^gof intestinal tumors marked with GFP and luciferase: UAS-Raf-1^gof X esg-Gal4,UAS-GFP,tub-Gal80^ts; UAS-luc2. […]

JAK-STAT signaling = experiment: upd3-GFP reporter for JAK-STAT signaling in wild-type guts; format: in vivo, Drosophila; settings: EC cells
Method: as §1, §2

[2] = tested on: Raf-1^gof intestinal tumors; on Fold (luciferase activity, fold difference relative to DMSO controls): test concentration or dose not given here; on Log2 (fold) (luciferase activity, log2 of the fold difference relative to DMSO controls): test concentration or dose not given here

Row | SMILES | expression of puc-lacZ reporter (JNK signaling) (JNK signaling) | Avg (3 + 6) [1] [fold] | Log2 (fold) [1] | Day 3 Fold [1] [fold] | Day 6 Fold [1] [fold] | expansion of ISCs/EBs in hop^msv1 animals (ISCs/EBs) | expression of upd3-GFP / Upd-3 reporter (JAK-STAT signaling) (JAK-STAT signaling) | Fold ([2]; Table 3 summary of hits, Screen ICCB, luciferase relative to DMSO, fed three consecutive days in vials) [fold] | Log2 (fold) (luciferase activity, log2 of the fold difference relative to DMSO controls) ([2]; screen of 480 ICCB compounds in vials, compounds fed to flies with one-day old Raf-1^gof tumors, assessed three days later, esg-Gal4 luciferase) | Fold (luciferase activity, fold difference relative to DMSO controls) ([2]; screen of 480 ICCB compounds in vials, compounds fed to flies with one-day old Raf-1^gof tumors, assessed three days later, esg-Gal4 luciferase, averaged from multiple wells)
1 | CC(=O)O[C@H]1C(=O)[C@@]2(C)[C@H]([C@H](OC(=O)c3ccccc3)[C@]3(O)C[C@H](OC(=O)[C@H](O)[C@@H](NC(=O)c4ccccc4)c4ccccc4)C(C)=C1C3(C)C)[C@]1(OC(C)=O)CO[C@@H]1C[C@@H]2O [Paclitaxel] | inducing expression of puc-lacZ; also recorded: induced expression of both the JNK puc-lacZ reporter and the Upd-3 reporter | 0.695 | −1.808 | 0.285 | 1.104 | less severe | inducing expression of puc-lacZ (red, upper panel) and upd3-GFP; also recorded: induced expression of both the JNK puc-lacZ reporter and the Upd-3 reporter | 0.274 | −1.870 | 0.274
2 | CC(C)C[C@H](NC(=O)[C@H](Cc1ccccc1)NC(=O)c1cnccn1)B(O)O [Bortezomib] | inducing expression of puc-lacZ; also recorded: induced expression of both the JNK puc-lacZ reporter and the Upd-3 reporter | 0.607 | −2.013 | 0.248 | 0.967 | less severe | inducing expression of puc-lacZ (red, upper panel) and upd3-GFP; also recorded: induced expression of both the JNK puc-lacZ reporter and the Upd-3 reporter |  |  | 
